Reference: patent US8586307B2, “Methods for diagnosing epigenetic, transgenerational effects of environmental toxicants on mammalian germ-lines and treating associated diseases” (priority 2005, dated 2013)

How the values were obtained:
[1] = tested on: vinclozolin generation animals; conditions: rat, in vivo
Description: A number of the genes associated with the methylation changes identified have a relationship with various disease states, Table 3. […] Therefore, alterations in the epigenetic (DNA methylation) and/or expression of these genes is associated with a number of disease states. In addition to these correlations to previous literature, the vinclozolin generation animals develop a variety of disease states. Vinclozolin (F1-F4) generation animals between 6-12 months of age develop a variety of disease states or abnormalities, Table 4 [153]. Therefore, the vinclozolin generational animals used develop a variety of diseases, and have the altered epigenetic programming of the male germ-line. Combined observations indicate that the epigenetic alterations in the germ-line DNA and associated genes identified in this Example, are associated with a number of disease states, Tables 3 and 4.

[2] = tested on: F1 generation testis; conditions: cited from earlier work
[3] = tested on: pregnant females; assay: Ovary and pregnancy outcomes in vinclozolin generation females; assay type: in vivo, rat; conditions: preliminary data
Description: The abnormal phenotype has similarities to pre-eclampsia that include death, severe anemia and blood cell defects, occurring in approximately 15% of all pregnancies in vinclozolin-generation females. Other disease states, as such as prostate abnormalities, tumor development, abnormal immune system activation and premature aging, may be induced by the epigenetic transgenerational actions of the endocrine disruptors.

[4] = tested on: male rats; conditions: rat, in vivo
Method: In Vivo Procedures: Gestating outbred Sprague-Dawley and inbred Fisher mother rats from timed, pregnant colonies housed at the Washington State University Vivarium, were given intraperitoneal injections of vinclozolin (100 mg/kg/day) and methoxychlor (200 mg/kg/day) from embryonic day 8-15 (E8-E15, sperm positive vaginal smear date=E0) of gestation (F0 generation) as previously described. Gestating mothers administered vehicle, sesame oil or DMSO, served as controls. At least 6 lines (individual F0 injected females) were generated for controls and treated groups for these analyses. Male rats from control and treated groups were collected at P60-P180 for analyses. F1 treated males were bred to F1 treated females to generate the F2 treated generation and F2 treated males were bred to F2 treated females to generate the F3 generation and the F3 were bred in the same manner to generate the F4 generation. Rats for the control groups were bred in the same manner for all the generations. No inbreeding or sibling crosses were generated. The outcross group (VOC) were generated by breeding the F2 treated males with wild-type females (total of 6 litters) and reverse outcross group (RVOC) was generated by breeding F2 treated females with wild-type males (total of 3 litters). Control (n=4) and treated (n=4) male offspring from the F1 generation from Fisher strain rats were collected at P6 for DNA methylation analysis, see below. All procedures have been approved by the Washington State University Animal Care Committee. The number of animals used for replicates in the experiments (i.e. n value) are as follows for vinclozolin treatment: F1 (control 11, treated 12); F2 (control 19, treated 30); F3 (control 19, treated 26); F4 (control 10, treated 17); VOC (18); and RVOC (6). For methoxychlor treatment animal number was for F1 (control 6, treated 9) and F2 (control 16, treated 22).
Histology: Tissues were fixed in Bouin's (Amresco, Solon Ohio) and embedded in paraffin, and then sections stained with hematoxylin and eosin, according to standard procedures. The n=50 treated vinclozolin, n=42 controls.

[5] = tested on: DNA isolated from P6 testis or epididymal sperm; assay: Methylation sensitive restriction enzyme PCR (MSRE-PCR) DNA methylation analysis; assay type: in vivo, rat
Method: DNA Methylation Assays: The methylation status of DNA, isolated from control and endocrine disruptor treated P6 testis, or epididymal sperm, used a combination of methylation sensitive restriction enzymes, and a PCR approach, previously described. Briefly, isolated genomic DNA was incubated and digested with RsaI, with either methylation sensitive (HpaII), or insensitive (MspI) restriction enzymes, followed by PCR, with 10 primer sets designed to amplify methylation sites. PCR products were electrophoretically separated, and visualized by Sybr green staining (Molecular Probes, Eugene, Oreg.), and effects of endocrine disruptors, were determined by the presence or absence of specific bands. The PCR products of interest were isolated, cloned and sequenced to determine chromosomal location by BLAST Genbank analysis. P6 testis analysis was repeated using 4 animals from different litters.
DNA methylation assay: The methylation state of the DNA isolated from CDF control and vinclozolin generation epididymal sperm was determined using a combination of methylation sensitive restriction enzymes and PCR procedures (MSRE-PCR) described above in Example I. Briefly, genomic DNA was isolated from sperm samples using the DNeasy Tissue Kit (Quiagen, Valencia, Calif.). Two micrograms each of control and vinclozolin generation sperm DNA were separately digested with RsaI and either methylation-sensitive enzyme HpaII or insensitive MspI enzymes, followed by PCR with specific primer sets (Table 1). PCR products were electrophoretically separated on polyacrylamide gels and visualized by ethidium bromide staining. The PCR products (i.e. bands) that were reproducibly absent or present between control and vinclozolin generation sperm DNA were excised from stained gels, re-amplified with the same PCR primer set, and then cloned and sequenced. The DNA sequence and chromosomal location were determined using the NCBI Rat genomic databank BLAST system.
Genomic DNA and Methylation Sensitive Restriction Enzyme PCR: Genomic DNA was isolated from the different control and vinclozolin F1-F3 generation epididymal sperm samples. A total of 1 μg of genomic DNA was digested using methylation-sensitive HpaII or AciI enzymes (37° C., 6-12 hr). The digested DNA was precipitated and dissolved in 30 μl of dH2O. Then, 3 μl aliquots were analyzed by PCR in 30 μl reactions with specific primers (Table 1), subjected to 25 cycles, and the PCR products electrophoretically separated on 1.5% agarose. The differences between the control and vinclozolin F1-F3 generation sperm samples were determined for selected genes found to have high optimal digestion capacity.

With `C=CC1(C)OC(=O)N(c2cc(Cl)cc(Cl)c2)C1=O` (stereo not shown) [vinclozolin] the “Prevalence, Immune Abnormalities” value [1] was 27%, the “Prevalence, Kidney Disease” value [1] was 40% and the “Prevalence, Prostate Disease” value [1] was 50%. The “Prevalence, Testis Defect” value [1] was 30%, the “Prevalence, Tumor Development (e.g. breast)” value [1] was 17% and the “frequency at which generation animals develop disease states” value [1] was ~85%. For the same compound, the “adult F1 generation testis phenotype” value ([2]; gestating mother exposed E8-E15, 100 or 200 mg/kg i.p. daily) was “reduced spermatogenic capacity, increased spermatogenic cell apoptosis and decreased sperm number and motility”, the “effect on the F1 generation testis” value ([2]; rat, in vivo) was “no effect” and the “pregnancies with abnormal phenotype similar to pre-eclampsia (death, severe anemia, blood cell defects)” value ([3]; F1, F2 and F3 generation pregnant females) was “approximately 15%”. The “effect on the female ovary” value [3] was “no major effect”, the “animals that developed a dramatic decrease in spermatogenic capacity” value ([4]; male) was “approximately 20%” and the “animals with infertility associated with small testis and severely reduced spermatogenesis” value ([4]; male) was 4 animals. For the same compound, the “transgenerational animals that developed complete infertility” value ([4]; male) was 8%, the “histology of the testis, control versus treated” value [4] was “similar” and the “infertility in outcrossed (VOC) males” value [4] was “increased infertility”. The “infertility in reverse outcross (RVOC)” value [4] was “no infertility”, the “gene specific MSRE-PCR products for candidates #1, #14, #17/18, #27/28 and #33” value ([5]; F1, F2 and F3 generation sperm DNA) was “PCR products were observed in all the vinclozolin generation sperm DNA samples, but not in the controls” and the “individual candidate DNA sequences with potential altered methylation sites” value ([5]; F3 generation sperm DNA) was 25. For the same compound, the “candidates with potential altered DNA methylation between control and vinclozolin sperm samples” value ([5]; F3 generation sperm, Fisher rats) was 34, the “different PCR products with apparent altered DNA methylation patterns” value ([5]; P6 testis, F1 males, Fisher rats, n=4) was “Approximately 25” and the “animals with altered clone 17 (cytokine-inducible SH2 STAT-like protein gene) methylation in epididymal sperm” value ([5]; out of 5 F3 animals) was 2 animals. The “animals with altered clone 17 (cytokine-inducible SH2 STAT-like protein gene) methylation in epididymal sperm” value ([5]; out of 8 F2 animals) was 4 animals.
